Measured values taken from US20130096119A1, “Isoquinolin-3-Ylurea Derivatives” (priority 2010, published 2013).
≈ marks a conversion by molar mass, not a printed value.

System: S. pneumoniae ATCC 49619
Test: Minimal inhibitory concentration (MIC) by microdilution method (CLSI M7-A7)
Assay type: cell-based, Streptococcus pneumoniae
Settings: for MIC: Streptococcus pneumoniae, ATCC49619, cation-adjusted Mueller-Hinton Broth supplemented with 3% (v/v) lysed horse blood
How it was run: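 For S. pneumoniae, cation-adjusted Mueller-Hinton broth carried 3% (v/v) lysed horse blood; MICs (mg/l) were read by CLSI M7-A7 microdilution.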

SMILES | MIC | MIC for S. pneumoniae ATCC 49619 (cation-adjusted Mueller-Hinton Broth supplemented with 3% (v/v) lysed horse blood)
CCNC(=O)Nc1cc2c(-c3ccccc3O)ccc(C)c2cn1 [Example 3, 1-ethyl-3-[5-(2-hydroxy-phenyl)-8-methyl-isoquinolin-3-yl]-urea] | 1 µg/mL (≈ 3.11 µM) | –
CCNC(=O)Nc1cc2c(-c3ccncc3)ccc(Nc3ccc(C)nc3)c2cn1 [Example 218, 1-ethyl-3-[8-(6-methyl-pyridin-3-ylamino)-5-pyridin-4-yl-isoquinolin-3-yl]-urea] | 1 µg/mL (≈ 2.51 µM) | –
CCNC(=O)Nc1cc2cc(-c3cncc(C)c3)cc(C)c2cn1 [Example 39, 1-ethyl-3-[8-methyl-6-(5-methyl-pyridin-3-yl)-isoquinolin-3-yl]-urea] | 1 µg/mL (≈ 3.12 µM) | –
CCNC(=O)Nc1cc2c(F)c(NCc3ccccc3)cc(-c3cnc(OC)nc3)c2cn1 [Example 110, 1-[6-benzylamino-5-fluoro-8-(2-methoxy-pyrimidin-5-yl)-isoquinolin-3-yl]-3-ethyl-urea] | 1 µg/mL (≈ 2.24 µM) | –
CCNC(=O)Nc1cc2cc(-c3cncc(F)c3)cc(C)c2cn1 [Example 102, 1-ethyl-3-[6-(5-fluoro-pyridin-3-yl)-8-methyl-isoquinolin-3-yl]-urea] | 2 µg/mL (≈ 6.17 µM) | –
CCNC(=O)Nc1cc2cccc(Nc3ccc(CC(=O)N(C)C)cc3)c2cn1.Cl [Example 206, 2-{4-[3-(3-ethyl-ureido)-isoquinolin-8-ylamino]phenyl}-N,N-dimethyl-acetamide hydrochloride] | 4 µg/mL | –
CCNC(=O)Nc1cc2cc(-c3cncnc3)cc(C)c2cn1 [Example 75, 1-ethyl-3-(8-methyl-6-pyrimidin-5-yl-isoquinolin-3-yl)-urea] | 4 µg/mL (≈ 13 µM) | –
CCNC(=O)Nc1cc2cc(NCc3ccc4ccn(C)c4c3)cc(C)c2cn1.Cl [Example 135, 1-ethyl-3-{8-methyl-6-[((1-methyl-1H-indol-6-yl)methyl)-amino]-isoquinolin-3-yl}-urea hydrochloride] | 16 µg/mL | –
CCNC(=O)Nc1cc2c(-c3cccc(S(N)(=O)=O)c3)ccc(C)c2cn1 [Example 13, 3-[3-(3-ethyl-ureido)-8-methyl-isoquinolin-5-yl]-benzenesulfonamide] | 2 µg/mL (≈ 5.2 µM) | –
CCNC(=O)Nc1cc2cccc(NCc3cccnc3)c2cn1 [Example 71, 1-ethyl-3-{8-[(pyridin-3-ylmethyl)-amino]-isoquinolin-3-yl}-urea] | 16 µg/mL (≈ 49.8 µM) | –
CCNC(=O)Nc1cc2c(-c3ccc(O)cc3)ccc(C)c2cn1 [Example 2, 1-ethyl-3-[5-(4-hydroxy-phenyl)-8-methyl-isoquinolin-3-yl]-urea] | 2 µg/mL (≈ 6.22 µM) | –
CCNC(=O)Nc1cc2cc(NC(=O)c3ccc(N(C)C)cc3)cc(C)c2cn1 [Example 121, 4-dimethylamino-N-[3-(3-ethyl-ureido)-8-methyl-isoquinolin-6-yl]-benzamide] | 0.25 µg/mL (≈ 0.639 µM) | –
CCNC(=O)Nc1cc2cccc(Nc3ccc(NC(C)=O)cc3)c2cn1 [Example 173, N-{4-[3-(3-ethyl-ureido)-isoquinolin-8-ylamino]-phenyl}-acetamide] | 2 µg/mL (≈ 5.5 µM) | –
CCNC(=O)Nc1cc2cccc(CNc3cc(C)nn3C)c2cn1 [Example 191, 1-{8-[(2,5-dimethyl-2H-pyrazol-3-ylamino)-methyl]-isoquinolin-3-yl}-3-ethyl-urea] | 8 µg/mL (≈ 23.6 µM) | –
CCNC(=O)Nc1cc2c(-c3cncc(F)c3)ccc(C)c2cn1 [Example 9, 1-ethyl-3-[5-(5-fluoro-pyridin-3-yl)-8-methyl-isoquinolin-3-yl]-urea] | 2 µg/mL (≈ 6.17 µM) | –
CCNC(=O)Nc1cc2cccc(Nc3cccc(NC(C)=O)c3)c2cn1 [Example 172, N-{3-[3-(3-ethyl-ureido)-isoquinolin-8-ylamino]-phenyl}-acetamide] | 2 µg/mL (≈ 5.5 µM) | –
CCNC(=O)Nc1cc2cc(C(NC(C)=O)c3ccccc3)cc(C)c2cn1 (stereo not shown) [Example 17, N-{1-[3-(3-ethyl-ureido)-8-methyl-isoquinolin-6-yl]-benzyl}-acetamide] | – | 1 µg/mL
CCNC(=O)Nc1cc2cc(-c3ccc(OC)nc3)cc(C)c2cn1 [Example 89, 1-ethyl-3-[6-(6-methoxy-pyridin-3-yl)-8-methyl-isoquinolin-3-yl]-urea] | 0.5 µg/mL (≈ 1.49 µM) | –
CCNC(=O)Nc1cc2cc(-c3cncc(SC)c3)cc(C)c2cn1 [Example 96, 1-ethyl-3-[8-methyl-6-(5-methylsulfanyl-pyridin-3-yl)-isoquinolin-3-yl]-urea] | 2 µg/mL (≈ 5.67 µM) | –
CCNC(=O)Nc1cc2cccc(CNc3ncccn3)c2cn1 [Example 304, 1-ethyl-3-[8-(pyrimidin-2-ylaminomethyl)-isoquinolin-3-yl]-urea] | 4 µg/mL (≈ 12.4 µM) | –
CCNC(=O)Nc1cc2cc(-c3ccncc3Cl)cc(C)c2cn1 [Example 98, 1-[6-(3-chloro-pyridin-4-yl)-8-methyl-isoquinolin-3-yl]-3-ethyl-urea] | 4 µg/mL (≈ 11.7 µM) | –
CCNC(=O)Nc1cc2c(-c3cccc(NC(C)=O)c3)ccc(C)c2cn1 [Example 4, N-{3-[3-(3-ethyl-ureido)-8-methyl-isoquinolin-5-yl]-phenyl}-acetamide] | 8 µg/mL (≈ 22.1 µM) | –
C=Cc1ccc(-c2ccncc2)c2cc(NC(=O)NCC)ncc12 [Example 140, 1-ethyl-3-[5-(pyridin-4-yl)-8-vinylisoquinolin-3-yl]-urea] | 2 µg/mL (≈ 6.28 µM) | –

SMILES | MIC | MIC for S. pneumoniae ATCC 49619 (cation-adjusted Mueller-Hinton Broth supplemented with 3% (v/v) lysed horse blood)
CCNC(=O)Nc1cc2c(CN(C)C)ccc(Nc3cccc(OC)n3)c2cn1 [Example 273, 1-{5-[(dimethylamino)methyl]-8-[(6-methoxy-pyridin-2-yl)amino]-isoquinolin-3-yl}-3-ethyl-urea] | 4 µg/mL (≈ 10.1 µM) | –
CCNC(=O)Nc1cc2cccc(Nc3ccc(OC)c(C(=O)N(C)C)c3)c2cn1 [Example 244, 5-[3-(3-ethyl-ureido)-isoquinolin-8-ylamino]-2-methoxy-N,N-dimethyl-benzamide] | 2 µg/mL (≈ 4.91 µM) | –
CCNC(=O)Nc1cc2cccc(Nc3cc(C)ccn3)c2cn1.Cl [Example 162, 1-ethyl-3-[8-(4-methyl-pyridin-2-ylamino)-isoquinolin-3-yl]-urea hydrochloride] | 2 µg/mL | –
CCNC(=O)Nc1cc2c(F)ccc(NCc3cccnc3)c2cn1 [Example 55, 1-ethyl-3-{5-fluoro-8-[(pyridin-3-ylmethyl)-amino]-isoquinolin-3-yl}-urea] | 8 µg/mL (≈ 23.6 µM) | –
CCNC(=O)Nc1cc2cccc(Nc3ccc(C(N)=O)cn3)c2cn1.Cl [Example 156, 6-[3-(3-ethyl-ureido)-isoquinolin-8-ylamino]-nicotinamide hydrochloride] | 2 µg/mL | –
CCNC(=O)Nc1cc2c(-c3ccncn3)ccc(C)c2cn1 [Example 278, 1-ethyl-3-(8-methyl-5-pyrimidin-4-yl-isoquinolin-3-yl)-urea] | 2 µg/mL (≈ 6.51 µM) | –
CCNC(=O)Nc1cc2cccc(Nc3ccc(C(=O)NC)cc3)c2cn1.Cl [Example 204, 4-[3-(3-ethyl-ureido)-isoquinolin-8-ylamino]-N-methyl-benzamide hydrochloride] | 2 µg/mL | –
CCNC(=O)Nc1cc2cc(-c3ccc(CC#N)cc3)cc(C)c2cn1 [Example 92, 1-[6-(4-(cyanomethyl)-phenyl)-8-methyl-isoquinolin-3-yl]-3-ethyl-urea] | 0.25 µg/mL (≈ 0.726 µM) | –
CCNC(=O)Nc1cc2cccc(Nc3ccncc3F)c2cn1.Cl [Example 157, 1-ethyl-3-[8-(3-fluoro-pyridin-4-ylamino)-isoquinolin-3-yl]-urea hydrochloride] | 2 µg/mL | –
CCNC(=O)Nc1cc2cc(NCc3cccc(OC)c3)cc(C)c2cn1.Cl [Example 197, 1-ethyl-3-[6-(3-methoxy-benzylamino)-8-methyl-isoquinolin-3-yl]-urea hydrochloride] | 8 µg/mL | –
CCNC(=O)Nc1cc2cccc(Nc3cccnc3OC)c2cn1.Cl [Example 291, 1-ethyl-3-[8-(2-methoxy-pyridin-3-ylamino)-isoquinolin-3-yl]-urea hydrochloride] | 4 µg/mL | –
CCNC(=O)Nc1cc2cccc(Nc3ncccn3)c2cn1 [Example 152, 1-ethyl-3-[8-(pyrimidin-2-ylamino)-isoquinolin-3-yl]-urea] | 4 µg/mL (≈ 13 µM) | –
CCNC(=O)Nc1cc2c(F)c(-c3cccc(NC(C)=O)c3)cc(C)c2cn1 [Example 142, N-{3-[3-(3-ethyl-ureido)-5-fluoro-8-methyl-isoquinolin-6-yl]-phenyl}-acetamide] | 0.25 µg/mL (≈ 0.657 µM) | –
CCNC(=O)Nc1cc2c(F)c(-c3cccc(NC(C)=O)c3)cc(Nc3cccnc3)c2cn1 [Example 234, N-{3-[3-(3-ethyl-ureido)-5-fluoro-8-(pyridin-3-ylamino)-isoquinolin-6-yl]phenyl}-acetamide] | 0.25 µg/mL (≈ 0.545 µM) | –
CCNC(=O)Nc1cc2cccc(Oc3cccnc3)c2cn1 [Example 147, 1-ethyl-3-[8-(pyridin-3-yloxy)-isoquinolin-3-yl]-urea] | 4 µg/mL (≈ 13 µM) | –
CCNC(=O)Nc1cc2cc(NC(=O)c3ccc(OC)cc3)cc(C)c2cn1 [Example 120, N-[3-(3-ethyl-ureido)-8-methyl-isoquinolin-6-yl]-4-methoxy-benzamide] | 0.125 µg/mL (≈ 0.33 µM) | –
CCNC(=O)Nc1cc2c(NCC)ccc(C)c2cn1 [Example 63, 1-ethyl-3-(5-ethylamino-8-methyl-isoquinolin-3-yl)-urea] | 2 µg/mL (≈ 7.34 µM) | –
CCNC(=O)Nc1cc2c(-c3ccc(O)cc3)ccc(Nc3cccnc3)c2cn1 [Example 228, 1-ethyl-3-[5-(4-hydroxy-phenyl)-8-(pyridin-3-ylamino)-isoquinolin-3-yl]-urea] | 2 µg/mL (≈ 5.01 µM) | –
CCNC(=O)Nc1cc2cc(-c3cccc(O)c3)cc(C)c2cn1 [Example 20, 1-ethyl-3-[6-(3-hydroxy-phenyl)-8-methyl-isoquinolin-3-yl]-urea] | 0.5 µg/mL (≈ 1.56 µM) | –
CCNC(=O)Nc1cc2cccc(Nc3cncc(OC)c3)c2cn1 [Example 177, 1-ethyl-3-[8-(5-methoxy-pyridin-3-ylamino)-isoquinolin-3-yl]-urea] | 2 µg/mL (≈ 5.93 µM) | –
CCNC(=O)Nc1cc2cccc(Cn3cccn3)c2cn1 [Example 295, 1-ethyl-3-(8-pyrazol-1-ylmethyl-isoquinolin-3-yl)-urea] | 8 µg/mL (≈ 27.1 µM) | –
CCNC(=O)Nc1cc2cc(-c3ccncc3)cc(C)c2cn1 [Example 21, 1-ethyl-3-(8-methyl-6-pyridin-4-yl-isoquinolin-3-yl)-urea] | 1 µg/mL (≈ 3.26 µM) | –
CCNC(=O)Nc1cc2c(F)ccc(NC(=O)c3ccccc3)c2cn1 [Example 51, N-[3-(3-ethyl-ureido)-5-fluoro-isoquinolin-8-yl]-benzamide] | 1 µg/mL (≈ 2.84 µM) | –
